Data published in patent EP0240854A1, “Bis-tert-butylamino-substituted 1,3,5-triazine derivatives, process for their preparation, medicaments containing these compounds, and their use” (HOECHST AKTIENGESELLSCHAFT, priority 1986, dated 1987).

Assays:
[1] = tested on: Elektroschock-induzierte Krämpfe; experiment: Antagonism against electroshock-induced convulsions (Swinyard); format: in vivo; conditions: Mus musculus, po, electroshock via corneal electrodes 1 h after test substance, tonic extensor convulsions; read-out: ECS Maus ED 50
Description: (§1) Die Krampf-verhindernde (antikonvulsive) Wirkung der erfindungsgemäßen Verbindungen wurde an Mäusen gegen Pentetrazol- und gegen Elektroschock- induzierte Krämpfe in der Anordnung von SWINYARD geprüft.
2. Antagonismus gegen Elektroschock-induzierte Krämpfe (Maus).
Methode (E.A.SWINYARD, In: Experimental Models of Epilepsy, Raven Press, New York, 1972, p. 433-458):
Gruppen von 6 männlichen Mäusen (Stamm: NMRI, SPF-71, KF) im Gewicht von 18-22 g werden in diesem Versuch verwendet. Die zu prüfenden Substanzen werden in einer 1 %igen Aufschwemmung von Tylose (Methyl-hydroxy-ethyl-cellulose) in Wasser suspendiert und per Schlundsonde in einem Volumen von 10 ml/kg Körpergewicht oral verabreicht. Die Kontrollgruppe erhält ein entsprechendes Volumen Tylosesuspension ohne Prüfsubstanz. Eine Stunde nach Prüfsubstanzgabe wird den Tieren über Cornea-Elektroden ein Elektroschock verabreicht (Stromstärke 12-22 mA, Dauer 0,2 sec, 50 Hz), nachdem vorher an einer zweiten Kontrollgruppe die Stromstärke ermittelt worden war, die bei 100 % der Tiere eine tonischen Extensorkrampf der hinteren Extremitäten hervorruft. Die Anzahl der durch die Prüfsubstanz vor einem Extensorkrampf geschützten Tiere dient als Mass der antikonvulsiven Wirkung in diesem Test. Bei vorhandener Schutzwirkung der Prüfsubstanz wird eine mittlere effektive Dosis (ED-50) grafisch (Litchfield and Wilcoxon) oder rechnerisch (Probitanalyse) ermittelt.

[2] = tested on: Pentetrazol-induzierte Krämpfe; experiment: Antagonism against pentetrazol-induced convulsions (Swinyard); format: in vivo, Maus; conditions: p.o., pentetrazol 125 mg/kg s.c. 1 h after test substance, tonic extensor convulsions; for ED50: Mus musculus, po, 1 h, read-out: Ptz Maus ED 50
Description: as §1
1. Antagonismus gegen Pentetrazol-induzierte Krämpfe (Maus)
Methode (E.A.SWINYARD, J.Pharmacol.Exp.Ther. 106, (1952), 319-330):
Gruppen von 10 männlichen Mäusen (Stamm: NMRI, SPF-71, KF) im Gewicht von 18-22 g werden in diesem Versuch verwendet. Die zu prüfenden Substanzen werden in einer 1 %-igen Aufschwemmung von ®Tylose (Methyl-hydroxy-ethyl-cellulose) in Wasser suspendiert und per Schlundsonde in einem Volumen von 10 ml/kg Körpergewicht oral verabreicht. Die Kontrollgruppe erhält ein entsprechendes Volumen Tylosesuspension ohne Prüfsubstanz. Pentetrazol (Cardiazol®) wird in wässriger Lösung in einer Dosis von 125 mg/kg Körpergewicht 1 Stunde nach Verabreichung der Prüfsubstanzen subcutan injiziert. Diese Dosis erzeugt bei 90-100 % der Kontrolltiere innerhalb der Beobachtungszeit von 60 Minuten nach der Injektion tonische Extensorkrämpfe der hinteren Extremitä-ten. Als Schutzwirkung der Prüfsubstanz wird gewertet, wenn die Anzahl der krampfenden Tiere gegenüber der Kontrollgruppe vermindert ist. Bei vorhandener Schutzwirkung der Prüfsubstanz wird eine mittlere effektive Dosis (ED-50) grafisch (Litchfield and Wilcoxon) oder rechnerisch (Probitanalyse) ermittelt.

[3] = tested on: Wistar Ratten; experiment: Lick-shock-conflict test (Vogel); format: in vivo, Ratte; conditions: Rattus norvegicus, po; for minimal effective dose: lowest dose with significant increase of lickings in the shock phase, read-out: Lick-Sh. Ratte MED; for change in vivo at 30 mg/kg: 30 mg/kg p.o.; for change in vivo at 30 mg/kg / change in vivo at 10 mg/kg: increase versus control group, read-out: Lick-Sh. Ratte prozentuale Zunahme der angenommenen Belohnungen (Wasser); for change in vivo at 10 mg/kg: 10 mg/kg p.o.
Description: (§2) Die Angst-lösende (anxiolytische Wirkung) der erfindungsgemäßen Verbindungen wurde im "Lick-shock-conflict- Test" nach VOGEl und im "Geller-Seifter-Konflikt-Test" nach GELLER und SEIFTER an WISTAR-Ratten geprüft.
3. Lick-shock-conflict-Test
Methode (VOGEL, J.R., Psychopharmacologia 21, (1971), 1-7
Männliche Wistar Ratten aus eigener Aufzucht (SPF Hattersheim) im Gewicht zwischen 90 und 120 g werden verwendet. Den Tieren wird für 48 Stunden vor Testbeginn das Trinkwasser entzogen. Zum Test werden die Tiere in eine Plastikbox (14x12x28 cm, BxTxH) gesetzt, die mit einer Wasserflasche mit Metall-Trinkrohr ausgestattet ist und die außerdem erlaubt, über eine elektronische Schaltung die Anzahl der Kontakte der Zunge des Tieres mit dem Trinkrohr zu messen. Der Boden der Box besteht aus Metallstäben, die durch die Steuerungselektronik unter Strom gesetzt werden können. Die Tiere haben nach dem Einsetzen in die Box 5 min. Zeit, um das Trinkrohr zu finden und 50-mal daran zu lekken. Tiere, die das Trinkrohr innerhalb dieser Zeit nicht gefunden haben, werden für den Versuch nicht verwendet. Nach diesen 50 Leckvorgängen (lickings) werden Trinkrohr und Bodenstäbe für jeweils 5 sec unter Strom gesetzt (Gleichstrom 300 µA) und dann für weitere 5 sec. wieder freigegeben. Diese Folge wird alternierend für eine Zeit von 5 min. weitergeführt, wobei die Zahl der Trinkrohr-Kontakte des Tieres während der Reizstrom- und der reizstromfreien Phase auf verschiedenen elektronischen Zählern registriert werden.
Gruppen von jeweils acht Tieren pro Dosis werden mit den Prüfsubstanzen, die in einem 1 %igen Tylose-Gel aufgeschwemmt sind, oral per Schlundsonde behandelt. Das Injektionsvolumen beträgt 5 ml/kg Körpergewicht. Die Prüfung in der obg. Testapparatur erfolgt 1 und 2 Std. nach Applikation der Prüfsubstanzen. Die Anzahl der Trinkrohr-Kontakte in der Reizstrom-Phase dient als Prüf-Variable. Die mittlere Anzahl der Kontakte in dieser Phase bei der Kontrollgruppe wird zu 100 % gesetzt und Zu- oder Abnahme der Kontaktzahl bei den mit Prüfsubstanz behandelten Tieren wird prozentual in Bezug auf die Kontrollgruppe ausgedrückt.
Anxiolytika bewirken in diesem Test gewöhnlich eine deutliche Zunahme der Wasseraufnahme (lickings) in der Reizstrom-Phase gegenüber den unbehandelten Kontrollen. Falls eine lineare oder logarithmische Beziehung zwischen Dosis und Wirkung gegeben ist, wird eine ED + 100 (d.i. die Dosis, die eine Zunahme der Wasseraufnahme um 100 % gegenüber der Kontrollgruppe bewirkt) mittels Regressionsanalyse errechnet. Ist eine lineare Dosisabhängigkeit nicht gegeben, so wird eine minimal effektive Dosis (MED) bestimmt, d.i. die niedrigste Dosis der Prüfsubstanz, die noch eine statistisch signifikante Zunahme der Wasseraufnahme im Vergleich zur Kontrollgruppe bewirkt (p=0,05, DUNNET-Test).

[4] = tested on: Wistar Ratten; experiment: Geller-Seifter conflict test; format: in vivo, Ratte; conditions: for minimal effective dose: Rattus norvegicus, po, 0.5 h, p.o., 30 min before test, lowest dose with significant change of lever press rate, read-out: Geller Ratte MED
Description: as §2
4. Geller-Seifter-Konflikt-Test
Methode (Geller, I.und Seifter, J., Psychopharmacologia 1 (1962), 482):
Männliche Wistar Ratten aus eigener Aufzucht (SPF Hattersheim) im Gewicht zwischen 240 und 370 g werden verwendet und Versuchsgruppen zu je 8 Tieren zugeordnet. Je 4 Tiere werden in Plastikkäfigen (56x38x20 cm) zusammengesetzt und durch abgewogene Futtermengen auf ca. 80 % ihres normalen Körpergewichts gehalten.
Die Tiere werden trainiert, in einer SKINNER-Box eine Taste zu drücken, um eine Belohnung in Form von gesüßter Kondensmilch zu erhalten. Die Box enthält zwei Tasten mit Mikroschaltern, einen Lautsprecher, ein Hauslicht, zwei Signallichter über den Tasten sowie einen Fußboden aus Metallstäben. Das Trainingsschema wurde der Arbeit von GELLER und SEIFTER (1962) in der Modifikation von DAVIDSON & COOK (Psychopharmacologia 15 (1969), 159-168) entlehnt: Jede Sitzung besteht aus vier 15-Minuten-Abschnitten, die alle aus einer 12-minütigen "Variable Interval" (VI) Phase und einer 3-minütigen "Fixed ration" (FR) Phase zusammengesetzt sind. Während der VI-Phase erhalten die Tiere auf Tastendruck Milchbelohnungen in einem durch einen Zufallsgenerator gesteuerten Intervall von 10-110 sec. mit einem Mittelwert um 60 15 sec. Während der FR-Phase erhalten die Tiere für jeden Tastendruck eine Belohnung, zusätzlich wird jedoch bei jedem 3. Tastendruck ein schmerzhafter elektrischer Reiz über die Fussbodenstäbe verabreicht, um eine Konfliktsituation zu erzeugen. Die Stromstärke des elektrischen Reizes wird für jedes Tier individuell so eingestellt (0,3-0,6 mA), daß die Tastendruckrate in der gesamten FR-Phase zwischen 5 und 15 liegt.
Das Training findet an 5 Tagen in der Woche statt, Versuche mit Prüfsubstanzen werden einmal wöchentlich durchgeführt. Da die Tiere als ihre eigene Kontrolle dienen, werden vor jedem Versuch mit Prüfsubstanzen mindestens zwei Vorwerte ohne Prüfsubstanz durchgeführt. Die zu prüfenden Verbindungen werden in einem 1 %igen Tylose-Gel suspendiert und 30 min vor Testbeginn oral per Schlundsonde in einem Volumen von 2 ml/kg verabreicht. Veränderungen der Tastendruckrate in der VI-Phase werden als Beeinflussung der motorischen Aktivität und Steigerung der Tastendruckrate in der FR-Phase werden als Anzeichnen für eine "Antikonflikt-" bzw. "anxiolytische" Wirkung gewertet. Bestimmt wird meist die minimal effektive Dosis (MED) der Prüfsubstanz, d.i. die niedrigste geprüfte Dosis, die noch eine statistisch signifikante Änderung der Tastendruckrate bewirkt (p=0,05; WILCOXON matched pairs signed rank test).

Compound | ED50 [1] [mg/kg] | ED50 [2] [mg/kg] | minimal effective dose [3] [mg/kg] | change in vivo at 30 mg/kg [3] [%] | change in vivo at 10 mg/kg [3] [%] | Geller Ratte prozentuale Zunahme der angenommenen Belohnungen (Milch) ([4]; 2,5 mg/kg p.o.) [%] | minimal effective dose [4] [mg/kg] | Ptz Maus ED 50 ([2]; 60 min) [mg/kg] | Geller Ratte prozentuale Zunahme der angenommenen Belohnungen (Milch) ([4]; 3 mg/kg p.o.) [%] | Geller Ratte prozentuale Zunahme der angenommenen Belohnungen (Milch) ([4]; 10 mg/kg p.o.) [%] | Geller Ratte prozentuale Zunahme der angenommenen Belohnungen (Milch) ([4]; 30 mg/kg p.o.) [%]
CC(C)(C)Nc1nc(NC(C)(C)C)nc(-n2ccnc2)n1 [Beispiel 5] | 30 | 12.2 | 30 | 34 |  |  |  |  |  |  | 
CC(C)(C)Nc1nc(NC(C)(C)C)nc(N2CCCC2)n1 [Beispiel 2, 2,4-Bis-(tert.butylamino)-6-pyrrolidino-1,3,5-triazin] | 30 | 2.4 | 10 | 74 | 61 |  |  |  |  |  | 
CC(C)(C)Nc1nc(NC2CCCC2)nc(NC(C)(C)C)n1 [Beispiel 9, 2,4-Bis-(tert.butylamino)-6-cyclopentylamino-1,3,5-triazin] | 24.7 | 10.3 | 30 | 68 |  |  |  |  |  |  | 
CC(C)(C)Nc1nc(NN2CCCCC2)nc(NC(C)(C)C)n1 [Beispiel 3, 2,4-Bis-(tert.butylamino)-6-(piperidino-amino)-1,3,5-triazin] | 30 | 3.2 | 10 | 87 | 75 |  |  |  |  |  | 
CC(C)C(C)Nc1nc(NC(C)(C)C)nc(NC(C)(C)C)n1 (stereo not drawn) [Beispiel 10, 2,4-Bis-(tert.-butylamino)-6-(1,2-dimethylpropylamino)-1,3,5-triazin] | 19.7 | 30 | 30 | 61 |  |  |  |  |  |  | 
CC(C)(C)Nc1nc(NN2CCOCC2)nc(NC(C)(C)C)n1 [Beispiel 4, 2,4-Bis-(tert.butylamino)-6-(morpholino-amino)-1,3,5-triazin] | 30 | 8.3 | 10 |  | 82 | 22 | 2.5 |  |  |  | 
CN(C)Nc1nc(NC(C)(C)C)nc(NC(C)(C)C)n1 [Beispiel 6, 2,4-Bis-(tert.butylamino)-6-(Nʹ-dimethylhydrazino)-1,3,5-triazin] | 20.7 | 10 | 10 |  | 103 |  | 10 |  |  |  | 
CC(C)(C)Nc1nc(NC(C)(C)C)nc(N2CCCCC2)n1 [Beispiel 1, 2,4-Bis-(tert.butylamino)-6-piperidino-1,3,5-triazin] | 32 | 4.2 | 10 |  | 63 |  | 3 | 2.1 | 91 | 97 | 382
CCN(CC)c1nc(NC(C)(C)C)nc(NC(C)(C)C)n1 [Beispiel 7, 2,4-Bis-(tert.butylamino)-6-diethylamino-1,3,5-triazin] | 14.5 | 6.9 | 30 | 101 |  |  |  |  |  |  | 
CC(C)Nc1nc(NC(C)(C)C)nc(NC(C)(C)C)n1 [Beispiel 8, 2,4-Bis-(tert.butylamino)-6-isopropylamino-1,3,5-triazin] | 46.6 | 2.3 | 10 | 230 | 154 |  | 10 |  |  | 76 | 91
